Assay results from patent US12138336B2, “Personal care composition comprising water insoluble solid organic compound” (The Procter & Gamble Company, priority 2018, dated 2024).
≈ marks a conversion by molar mass, not a printed value. Read-outs that look alike come from different tables or passages of the source. One block for each compound: values may come before it.

Tests used:
[1] = Water solubility at 25° C.; format: physicochemical; details: for solubility: water, 25 °C
[2] = Di-electric constant, BI-870 Liquid Dielectric Constant Meter; format: physicochemical; details: third liquid compounds; room temperature (23.1-23.4° C.)
Experimental: Dielectric constant is measured at room temperature (23.1 ˜23.4° C.) using BI-870 Liquid Dielectric Constant Meter (Brookhaven Instruments, Corp., New York).

[3] = Crystals of the solid organic compound present in the composition at 25° C. or not; format: physicochemical; details: added dissolved in ethanol/water mixture; cationic surfactant and high melting point fatty compounds; especially at higher amount
[4] = known property; cited from earlier work
[5] = third liquid compounds, read-out: Solubility in H2O
[6] = solid organic compounds, 25° C.
[7] = first liquid oily compounds, read-out: Solubility in H2O

solubility [1, 5]: 43000 µg/mL (≈ 398000 µM) | Di-electric constant [2]: 13.69
SMILES: OCc1ccccc1 [Benzyl Alcohol]

Water Solubility [1, 6]: 4450 µg/mL
SMILES: Cc1cc(C2CCCCC2)n(O)c(=O)c1 [Ciclopirox Olamine, reference compound]

Water Solubility [1, 6]: 1410 µg/mL
SMILES: Cc1cc(C2CCCCC2)n(O)c(=O)c1 [Ciclopirox, reference compound]

Solubility in H2O ([1]; first liquid oily compounds): Negligible (lower than 0.1) g/L
SMILES: C=CC(C)CCCC(C)(C)O (stereo not shown) [Dihydro Myrcenol]

solubility [1, 7]: 2.75 µg/mL (≈ 12.7 µM)
SMILES: CCCCCCC(C=O)=Cc1ccccc1 [Hexyl Cinnamic Aldehyde]

Solubility in H2O ([1]; first liquid oily compounds): Negligible (lower than 0.1) g/L
SMILES: CCCCCCCCCCCC(=O)N(C)CC(=O)OC(C)C [Isoropyl N-Lauroyl Sarcosinate]

solubility [1, 7]: 91.7 µg/mL (≈ 405 µM)
SMILES: CCCCCC1C(=O)CCC1CC(=O)OC (stereo not shown) [Methyl Dihydro Jasmonate]

solubility [1, 5]: 26000 µg/mL (≈ 188000 µM)
SMILES: OCCOc1ccccc1 [Phenoxyethanol]

Crystal formation in aqueous hair conditioning compositions [3]: forms crystals | Water Solubility [1, 6]: 30 µg/mL
SMILES: Cc1cc(CC(C)CC(C)(C)C)n(O)c(=O)c1.NCCO (stereo not shown) [Piroctone Olamine]
Solubility in water, in words [4]: very limited solubility in water

solubility ([1]; solid organic compounds, 25° C., read-out: Water Solubility): 240 µg/mL (≈ 1010 µM)
SMILES: Cc1cc(CC(C)CC(C)(C)C)n(O)c(=O)c1 (stereo not shown) [Piroctone, reference compound]
